PubChem BioAssay AID1963450 (Molecular Pharmacology Branch, DTP, NCI, 2024)
pIC50: −log10 of the molar value.

System: 556581-035-R-J1-PDC complex spheroid growth
Experiment: Anticancer human tumor 556581-035-R-J1-PDC patient-derived ovarian carcinoma cell line growth inhibition [Asc]
Conditions: for pIC50: curve of first compound; for viability, T/C: stronger effect = lower value
Protocol: Multicellular complex tumor spheroid response to apoptosis pathway targeting inhibitors Alrizomadlin, Pelcitoclax, and Dasminapant in combination with a variety of drugs and investigational agents in selected tumor cell lines
The MDM2 inhibitor alrizomadlin, the Bcl-2/Bcl-xL inhibitor pelcitoclax, and the IAPs inhibitor dasminapant were evaluated both individually and in combination with standard of care and investigational anticancer small molecules within a complex spheroid model of solid tumors. . Complex spheroids include a stromal component modeled by human endothelial cells (HUVEC) and fibroblasts modeled by human mesenchymal stem cells (MSCs). The concentration ranges selected for each drug and investigational agent were based upon clinically achievable concentrations if the clinical Cmax of the agent was known.
Compounds. The drugs and investigational agents: alrizomadlin (APG-115; NSC831270), pelcitoclax (APG-1252; NSC835773), dasminapant (APG-1387;NSC834197), TAK-243 (NSC785004), copanlisib (NSC809693), olaparib (NSC753686), talazoparib (NSC767125), cobimetinib (NSC 768068), eltanexor (KPT-8602, NSC 794443), abemaciclib (NSC 768073), sotorasib (NSC818433), adagrasib (NSC 831453), MRTX-1133 (NSC 836407), Iadademestat (ORY1001, NSC 806812), and RMC-4630 (NSC839698), were obtained from the NCI Developmental Therapeutics Program Chemical Repository. The FDA-approved anticancer drug set is available from the Developmental Therapeutics Program at https://dtp.cancer.gov/organization/dscb/obtaining/available plates.htm. […] The stock solutions were prepared in dimethyl sulfoxide (DMSO, Sigma-Aldrich, St. Louis, MO, cat. D2650) at 800-fold the tested concentration and stored at -70 degrees C prior to their use. All drugs and investigational agents were tested over a range starting from a high concentration at or near the clinical Cmax and decreasing in half-log increments. If the clinical Cmax for an agent had not been determined, the highest concentration tested was 10 microM.
The patient-derived cancer (PDC) cell lines include five colon adenocarcinomas: 186277-243-T-J2-PDC, 616215-338-R-J1-PDC, 439559-082-T-J2-PDC, 463943-066-T-J2-PDC, and 519858-162-T-J1-PDC; three pancreatic carcinomas: 323965-272-R-J2-PDC, 521955-158-R6-J3-PDC, and 521955-158-R2-J5-PDC; two uterine sarcomas: 327498-152-R-J2-PDC and 993429-296-R-J1-PDC; two rhabdomyosarcomas: 755483-174-R-J1-PDC and 772245-204-R-J1-PDC; two soft tissue sarcomas: 126254-015-R-J1-PDC and 494315-158-R-J1-PDC; two malignant fibrous histiocytomas: 317291-083-R-J1-PDC and 596521-263-R-J1-PDC; two breast carcinomas: 171881-019-R-J1-PDC and 885512-296-R-J2-PDC; and one ovarian carcinoma: 6556581-035-R-J-PDC were obtained from the NCI PDMR, (https://pdmr.cancer.gov). The established cell lines HSSY-2 synovial sarcoma (RRID:CVCL 8719), SYO-1 synovial sarcoma (RRID:CVCL_7146), MPNST malignant peripheral neural sheath tumor were obtained from the Sloan Kettering Institute. The following established cell lines were purchased from the American Type Culture Collection (ATCC, Manassas, VA), Sor the received from the NCI repository:, PANC-1 pancreatic carcinoma (CRL-1469, RRID:CVCL_0480), OVCAR-5 ovarian carcinoma (RRID:CVCL_1628), OVCAR-8 ovarian carcinoma (RRID:CVCL_1629), , MCF-7 breast carcinoma (CRL-12584, RRID:CVCL_0031), MDA-MB-231 breast carcinoma (CRL-12532, RRID:CVCL_0062), NCI-H1876 small cell lung carcinoma (CRL-5902, RRID:CVCL_1503), NCI-H510A small cell lung carcinoma (HTB-184, RRID:CVCL_1565), NCI-H1417 (CRL-5869, RRID:CVCL_1469), and NCI-H196 small cell lung carcinoma (CRL-5823, RRID:CVCL_1509). Dr. Peter Houghton (Greehey Children's Cancer Research Institute, University of Texas Health Science Center, San Antonio, TX) provided Rh-18 rhabdomyosarcoma (RRID:CVCL_1659). Pooled donor human umbilical vein endothelial cells (HUVEC, Lonza, cat. CC-2519) and human mesenchymal stem cells (hMSC, Lonza, cat. PT-2501) were purchased from Lonza (Walkersville, MD).
Cell Culture. […]
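Also: spheroids exposed to agents for 7 days before viability read.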

pIC50 (second compound 0.01 µM): < 6.52 | pIC50 (second compound 0.0316 µM): < 6.52 | pIC50 (second compound 0.1 µM): < 6.52 | pIC50 (second compound 0.316 µM): < 6.52 | pIC50 (second compound 1 µM): < 6.52
SMILES: NC(=O)C(=Cn1cnc(-c2cc(C(F)(F)F)cc(C(F)(F)F)c2)n1)c1cncnc1 + CNC(C)C(=O)NC1CN(S(=O)(=O)c2cccc(S(=O)(=O)N3CCC4CCC(C(=O)NC(c5ccccc5)c5ccccc5)N4C(=O)C(NC(=O)C(C)NC)C3)c2)CCC2CCC(C(=O)NC(c3ccccc3)c3ccccc3)N2C1=O
viability, T/C (second compound 0.01 µM, first compound 0.000949 µM): 93% | viability, T/C (second compound 0.01 µM, first compound 0.003 µM): 85.2% | viability, T/C (second compound 0.01 µM, first compound 0.00949 µM): 63.7% | viability, T/C (second compound 0.01 µM, first compound 0.03 µM): 66.8% | viability, T/C (second compound 0.01 µM, first compound 0.0949 µM): 90.1% | viability, T/C (second compound 0.01 µM, first compound 0.3 µM): 72.6% | viability, T/C (second compound 0.0316 µM, first compound 0.000949 µM): 105% | viability, T/C (second compound 0.0316 µM, first compound 0.003 µM): 86% | viability, T/C (second compound 0.0316 µM, first compound 0.00949 µM): 87.9% | viability, T/C (second compound 0.0316 µM, first compound 0.03 µM): 79.2% | viability, T/C (second compound 0.0316 µM, first compound 0.0949 µM): 75.7% | viability, T/C (second compound 0.0316 µM, first compound 0.3 µM): 82% | viability, T/C (second compound 0.1 µM, first compound 0.000949 µM): 70.7% | viability, T/C (second compound 0.1 µM, first compound 0.003 µM): 79.5% | viability, T/C (second compound 0.1 µM, first compound 0.00949 µM): 76.1% | viability, T/C (second compound 0.1 µM, first compound 0.03 µM): 50% | viability, T/C (second compound 0.1 µM, first compound 0.0949 µM): 64.1% | viability, T/C (second compound 0.1 µM, first compound 0.3 µM): 63.3% | viability, T/C (second compound 0.316 µM, first compound 0.000949 µM): 76.5% | viability, T/C (second compound 0.316 µM, first compound 0.003 µM): 75.8% | viability, T/C (second compound 0.316 µM, first compound 0.00949 µM): 71.7% | viability, T/C (second compound 0.316 µM, first compound 0.03 µM): 65.8% | viability, T/C (second compound 0.316 µM, first compound 0.0949 µM): 65.3% | viability, T/C (second compound 0.316 µM, first compound 0.3 µM): 62.2% | viability, T/C (second compound 1 µM, first compound 0.000949 µM): 76.9% | viability, T/C (second compound 1 µM, first compound 0.003 µM): 73% | viability, T/C (second compound 1 µM, first compound 0.00949 µM): 66.7% | viability, T/C (second compound 1 µM, first compound 0.03 µM): 63% | viability, T/C (second compound 1 µM, first compound 0.0949 µM): 59.7% | viability, T/C (second compound 1 µM, first compound 0.3 µM): 53.3%
